What was measured:
[1] = test system: RSD triggered and developed by a trauma or surgical invasion; settings: clinical, literature; cited from earlier work
[2] = test system: patients with hemiplegia attributed to cerebrovascular disease (stroke), onset of RSD (shoulder-hand syndrome); assay: Test of prevention of onset of post-stroke RSD; format: in vivo, humans
Text: Test subjects were 33 patients with hemiplegia attributed to cerebrovascular disease (stroke) at Brunnstrom stage III or lower in either the upper limb or a finger on admission. Patients already developing RSD (shoulder-hand syndrome) on admission and patients with pain in the shoulder joint or swollen paralyzed limbs were excluded from the test. […] On the other hand, 21 test subjects were classified into a rehabilitation alone group (control group) and compared with the EL administration group. Physical therapy and therapeutic exercise, occupational therapy, and the management of the paralyzed limbs were performed thoroughly in all the cases. […] EL administration was initiated 11 to 59 days after an attack of stroke (25.8 days on average) and continued until 5 months after the attack of stroke. The same observation period was applied to the control group. The test subjects were diagnosed as developing RSD (shoulder-hand syndrome) if they had diffuse pain not localized to the shoulder joint, edema involving skin color changes, skin temperature abnormalities, and range of motion limitations, and the practice of their rehabilitation was restricted. These criteria agreed to Veldmnan's diagnostic criteria or diagnostic criteria for CRPS-type 1 provided by the International Association for the Study of Pain.
Activities of daily living (ADL) were evaluated on the basis of the Barthel Index (BI) and the range of motion (ROM) of shoulder joint. The movable range of shoulder joint (also referred to as “shoulder ROM”) was regarded as restricted (Shoulder-ROM-restrictions were present.) if either abduction or flexion was restricted in measurement. The test subjects were also examined for sensory impairment, aphasia, and unilateral spatial neglect on admission.
Statistical analysis was conducted with unpaired t-test, Fisher's exact test or Wilcoxon test, and 5% or lower significance level was regarded as being significant.

[3] = test system: patients with hemiplegia attributed to cerebrovascular disease (stroke) who developed RSD (shoulder-hand syndrome); assay: Test of treatment of post-stroke RSD (therapeutic administration after onset); format: in vivo, humans; settings: therapeutic administration group (11 patients), at completion of administration
Method: EL was administered after the onset of RSD (shoulder-hand syndrome) in the same use and dose as in Example 1 to 11 patients with hemiplegia attributed to cerebrovascular disease (stroke) at Brunnstrom stage III or lower in either the upper limb or a finger on admission, who developed RSD (shoulder-hand syndrome). These patients were classified into a therapeutic administration group. On the other hand, the EL administration group of Example 1 was compared as a control (preventive administration group) with the therapeutic administration group.

[4] = in vivo; cited from earlier work
[5] = EL preventive administration group (12 cases), 20 units i.m. once a week until 5 months after stroke

O=C1O[C@H]([C@@H](O)CO)C(O)=C1O [vitamin C]
Preventive effect on the initial onset of RSD after trauma or surgical invasion [1]: preventive effect

1-butyric acid-7-(L-2-aminobutyric acid)-26-L-aspartic acid-27-L-valine-29-L-alanine-calcitonin [elcatonin]
Incidence converted to incidence in all patients with hemiplegia attributed to stroke in the facility ([2]; EL administration group): approximately 1.3% | Incidence of RSD ([2]; EL administration initiated within 48 days after stroke): 0% | The number of test subjects developing post-stroke RSD: Developed [2, 5]: 1 | The number of test subjects developing post-stroke RSD: Not developed [2, 5]: 11 | Incidence of RSD (cases developed RSD) ([2]; EL preventive administration group, 12 cases): 8.3% | Incidence of RSD until discharge versus unadministered patient group ([2]; repetitive administration to stroke hemiplegia patients without RSD on admission): suppressed significantly and remarkably | No RSD, the number of persons [3]: 0

salmon calcitonin
Dose of oral administration agent relative to dose of drip infusion in vein [4]: approximately 60 times

From patent publication US7919460B2, “Method for prophylaxis of reflex sympathetic dystrophy after stroke” (Asahi Kasei Pharma Corporation, priority 2006, dated 2011)
